In brackets after ≈: the same amount, converted by molar mass. Activity calls are given as the source filed them. The rule behind the calls is not given here.
Key:
[1] = tested on: Staphylococcus lugdunensis; test: Effect on biofilm formation of Staphylococcus lugdunensis assessed as percent non-biofilm forming isolates; format: functional; design: concentration or dose not given beside the values
[2] = tested on: Staphylococcus lugdunensis; test: Antimicrobial susceptibility of Staphylococcus lugdunensis isolates by broth microdilution method; format: functional; settings: for MIC50 / MIC90: Staphylococcus lugdunensis
[3] = tested on: Staphylococcus lugdunensis; test: Antimicrobial susceptibility of Staphylococcus lugdunensis IDRL856 biofilms after 24 hrs assessed as bacterial regrowth; format: functional
[4] = tested on: Staphylococcus lugdunensis; test: Antimicrobial susceptibility of Staphylococcus lugdunensis IDRL2394 biofilms after 24 hrs assessed as bacterial regrowth; format: functional
[5] = tested on: Staphylococcus lugdunensis; test: Antimicrobial susceptibility of Staphylococcus lugdunensis IDRL2414 biofilms after 24 hrs assessed as bacterial regrowth; format: functional
[6] = tested on: Staphylococcus lugdunensis; test: Antimicrobial susceptibility of Staphylococcus lugdunensis IDRL2492 biofilms after 24 hrs assessed as bacterial regrowth; format: functional
[7] = tested on: Staphylococcus lugdunensis; test: Antimicrobial susceptibility of Staphylococcus lugdunensis IDRL2526 biofilms after 24 hrs assessed as bacterial regrowth; format: functional
[8] = tested on: Staphylococcus lugdunensis; test: Antimicrobial susceptibility of Staphylococcus lugdunensis IDRL2554 biofilms after 24 hrs assessed as bacterial regrowth; format: functional
[9] = tested on: Staphylococcus lugdunensis; test: Antimicrobial susceptibility of Staphylococcus lugdunensis IDRL2588 biofilms after 24 hrs assessed as bacterial regrowth; format: functional
[10] = tested on: Staphylococcus lugdunensis; test: Antimicrobial susceptibility of Staphylococcus lugdunensis IDRL2622 biofilms after 24 hrs assessed as bacterial regrowth; format: functional
[11] = tested on: Staphylococcus lugdunensis; test: Antimicrobial susceptibility of Staphylococcus lugdunensis IDRL2639 biofilms after 24 hrs assessed as bacterial regrowth; format: functional
[12] = tested on: Staphylococcus lugdunensis; test: Antimicrobial susceptibility of Staphylococcus lugdunensis IDRL2640 biofilms after 24 hrs assessed as bacterial regrowth; format: functional
[13] = tested on: Staphylococcus lugdunensis; test: Antimicrobial susceptibility of Staphylococcus lugdunensis IDRL2664 biofilms after 24 hrs assessed as bacterial regrowth; format: functional
[14] = tested on: Staphylococcus lugdunensis; test: Antimicrobial susceptibility of Staphylococcus lugdunensis IDRL5204 biofilms after 24 hrs assessed as bacterial regrowth; format: functional
[15] = tested on: Staphylococcus lugdunensis; test: Antimicrobial susceptibility of Staphylococcus lugdunensis IDRL5254 biofilms after 24 hrs assessed as bacterial regrowth; format: functional
[16] = tested on: Staphylococcus lugdunensis; test: Antimicrobial susceptibility of Staphylococcus lugdunensis IDRL5256 biofilms after 24 hrs assessed as bacterial regrowth; format: functional
[17] = tested on: Staphylococcus lugdunensis; test: Antimicrobial susceptibility of Staphylococcus lugdunensis IDRL5258 biofilms after 24 hrs assessed as bacterial regrowth; format: functional
[18] = tested on: Staphylococcus lugdunensis; test: Increase in biofilm formation of Staphylococcus lugdunensis assessed as percent biofilm forming isolates; format: functional
[19] = tested on: Staphylococcus lugdunensis; test: Decrease in biofilm formation of Staphylococcus lugdunensis assessed as percent biofilm forming isolates; format: functional; design: concentration or dose not given beside the values
Staphylococcus aureus [20] = test: Increase in biofilm formation of Staphylococcus aureus SA113 at 0.25 times MIC; format: functional, organism-based
[21] = tested on: Staphylococcus epidermidis; test: Increase in biofilm formation of Staphylococcus epidermidis RP62A at 0.25 times MIC; format: functional, organism-based
Staphylococcus aureus [22] = test: Decrease in biofilm formation of Staphylococcus aureus SA113; format: functional, organism-based
[23] = tested on: Staphylococcus epidermidis; test: Decrease in biofilm formation of Staphylococcus epidermidis RP62A; format: functional, organism-based
[24] = tested on: Staphylococcus lugdunensis; test: Antimicrobial susceptibility of Staphylococcus lugdunensis IDRL5204 isolate from prosthetic joint infection patient by broth microdilution method; format: functional
[25] = tested on: Staphylococcus lugdunensis; test: Stimulation of Staphylococcus lugdunensis IDRL5256 biofilm formation; format: functional, organism-based

| Compound | Activity [1] [%] | MBC50 [2] [µg/mL] | MBC90 [2] [µg/mL] | MIC50 [2] [µg/mL] | MIC90 [2] [µg/mL] | BBC [3] [µg/mL] | BBC [4] [µg/mL] | BBC [5] [µg/mL] | BBC [6] [µg/mL] | BBC [7] [µg/mL] | BBC [9] [µg/mL] | BBC [10] [µg/mL] | BBC [11] [µg/mL] | BBC [12] [µg/mL] | BBC [14] [µg/mL] | BBC [15] [µg/mL] | BBC [16] [µg/mL] | BBC [17] | Activity [18] [%] | Activity [19] [%] | also measured |
| --- | --- | --- | --- | --- | --- | --- | --- | --- | --- | --- | --- | --- | --- | --- | --- | --- | --- | --- | --- | --- | --- |
| CCCCCCCCCC(=O)N[C@@H](Cc1c[nH]c2ccccc12)C(=O)N[C@H](CC(N)=O)C(=O)N[C@@H](CC(=O)O)C(=O)N[C@@H]1C(=O)NCC(=O)N[C@@H](CCCN)C(=O)N[C@@H](CC(=O)O)C(=O)N[C@H](C)C(=O)N[C@@H](CC(=O)O)C(=O)NCC(=O)N[C@H](CO)C(=O)N[C@@H]([C@H](C)CC(=O)O)C(=O)N[C@@H](CC(=O)c2ccccc2N)C(=O)O[C@@H]1C | 87 | 0.5 (≈ 0.309 µM) | 1 (≈ 0.617 µM) | 0.125 (≈ 0.0771 µM) | 0.25 (≈ 0.154 µM) | 16 | 64 | >128 | 8 | 8 | 128 | 1 | 32 | >128 | 8 | 128 | 64 | 16 µg/mL | 13 | 0 | BBC [8]: 4 µg/mL; BBC [13]: 32 µg/mL |
| Cc1nnc(SCC2=C(C(=O)O)N3C(=O)[C@@H](NC(=O)Cn4cnnn4)[C@H]3SC2)s1 [CEFAZOLIN] | 80 | 0.5 (≈ 1.1 µM) | 1 (≈ 2.2 µM) | 0.25 (≈ 0.55 µM) | 0.5 (≈ 1.1 µM) | >128 | >128 | >128 | >128 | >128 | >128 | 2 | 4 | >128 | 1 | >128 | >128 | >128 µg/mL | 13 | 7 | BBC [8]: >128 µg/mL; BBC [13]: 8 µg/mL |
| CC(=O)NC[C@H]1CN(c2ccc(N3CCOCC3)c(F)c2)C(=O)O1 [LINEZOLID] | 20 | >128 | >128 | 1 (≈ 2.96 µM) | 1 (≈ 2.96 µM) | >128 | >128 | >128 | >128 | >128 | >128 | >128 | >128 | >128 | 4 | >128 | >128 | >128 µg/mL | 0 | 80 | Activity (Staphylococcus aureus [20]): Active; Activity [21]: Active; BBC [8]: >128 µg/mL; BBC [13]: >128 µg/mL |
| COc1c(N2C[C@@H]3CCCN[C@@H]3C2)c(F)cc2c(=O)c(C(=O)O)cn(C3CC3)c12 [MOXIFLOXACIN] | 33 | 0.125 (≈ 0.311 µM) | 0.25 (≈ 0.623 µM) | 0.125 (≈ 0.311 µM) | 0.25 (≈ 0.623 µM) | 0.25 | 2 | 0.5 | 0.25 | 0.5 | 0.5 | 2 | 0.25 | 2 | 0.5 | 0.5 | 1 | <=0.125 ug ml-1 | 27 | 40 | BBC [8]: <=0.125 ug ml-1; BBC [13]: <=0.125 ug ml-1 |
| CCOc1ccc2ccccc2c1C(=O)N[C@@H]1C(=O)N2[C@@H]1SC(C)(C)[C@@H]2C(=O)O [NAFCILLIN] | 7 | 0.5 (≈ 1.21 µM) | 2 (≈ 4.83 µM) | 0.5 (≈ 1.21 µM) | 0.5 (≈ 1.21 µM) | 16 | >128 | >128 | 8 | 4 | 8 | 8 | 1 | >128 | 0.5 | >128 | >128 | 0.5 µg/mL | 93 | 0 | Activity (Staphylococcus aureus [22]): Active; Activity [23]: Active; BBC [8]: 2 µg/mL; BBC [13]: 2 µg/mL |
| CO[C@H]1/C=C/O[C@@]2(C)Oc3c(C)c(O)c4c(O)c(c(/C=N/N5CCN(C)CC5)c(O)c4c3C2=O)NC(=O)/C(C)=C\C=C\[C@H](C)[C@H](O)[C@@H](C)[C@@H](O)[C@@H](C)[C@H](OC(C)=O)[C@@H]1C [RIFAMPIN] | 93 | 8 (≈ 9.72 µM) | >32 | ≤ 0.03 | ≤ 0.03 | 8 | 0.25 | 0.25 | 64 | 32 | 64 | 64 | 32 | 64 | 32 | 64 | 32 | 8 µg/mL | 7 | 0 |  |
| Cc1cc(NS(=O)(=O)c2ccc(N)cc2)no1 [SULFAMETHOXAZOLE] |  |  |  |  |  |  |  |  |  |  |  |  |  |  |  |  |  |  |  |  | MIC [24]: 304 µg/mL (≈ 1200 µM) |
| CN(C)[C@@H]1C(O)=C(C(N)=O)C(=O)[C@@]2(O)C(O)=C3C(=O)c4c(O)cccc4[C@@](C)(O)[C@H]3C[C@@H]12 [TETRACYCLINE] | 0 | >32 | >32 | 0.25 (≈ 0.563 µM) | 1 (≈ 2.25 µM) | 128 | 128 | 128 | 128 | 128 | 128 | 128 | 16 | 128 | 1 | 128 | 128 | 64 µg/mL | 7 | 93 | Activity [25]: Active; BBC [8]: 128 µg/mL; BBC [13]: 128 µg/mL |
| COc1cc(Cc2cnc(N)nc2N)cc(OC)c1OC [TRIMETHOPRIM] |  |  |  |  |  |  |  |  |  |  |  |  |  |  |  |  |  |  |  |  | MIC [24]: 16 µg/mL (≈ 55.1 µM) |

Source: ChEMBL document CHEMBL1142066, “In vitro effects of antimicrobial agents on planktonic and biofilm forms of Staphylococcus lugdunensis clinical isolates” (2007)
